Assay results from ChEMBL document CHEMBL1138508, “Design, synthesis, and pharmacological effects of a cyclization-activated steroid prodrug for colon targeting in inflammatory bowel disease” (J Med Chem, 2009).
Activity calls are given as the source filed them. No cut-off for these calls is given here.

What was measured:
Mus musculus [1] = test: Toxicity in dextran sodium sulfate treated BALB/c mouse ulcerative colitis model assessed as reduction in thymus weight to body weight ratio at 5 mg/kg, po administered twice daily for 6 days relative to control; type: organism-based; parameters: dose 5 mg/kg, route oral; conditions: in vivo, 144 h
Mus musculus [2] = test: Inhibition of dextran sodium sulfate-induced ulcerative colitis in BALB/c mouse assessed as decrease in colon shortening at 5 mg/kg, po twice daily for 6 days relative to control; type: functional, organism-based; parameters: dose 5 mg/kg
[3] = Stability at pH 8 to 9 after 24 hrs; type: physicochemical; conditions: buffer, pH 8, 24 h
[4] = Stability at pH 3.4 to 7.4 after 24 hrs; type: physicochemical; conditions: buffer, pH 3.4, 24 h
[5] = Apparent permeability from basolateral to apical side in human Caco-2 cells by HPLC; type: ADME, cell-based
Mus musculus [6] = test: Inhibition of dextran sodium sulfate-induced ulcerative colitis in BALB/c mouse assessed as decrease in body weight loss at 5 mg/kg, po twice daily for 6 days relative to control; type: functional, organism-based; parameters: dose 5 mg/kg
[7] = Stability in human gastric juice after 24 hrs; type: ADME, tissue-based
Mus musculus [8] = test: Inhibition of dextran sodium sulfate-induced ulcerative colitis in BALB/c mouse assessed as decrease in disease activity index at 5 mg/kg, po twice daily for 6 days relative to control; type: functional, organism-based; parameters: dose 5 mg/kg
[9] = Chemical stability assessed as half life at neutrality pH; type: physicochemical
Mus musculus [10] = test: Inhibition of dextran sodium sulfate-induced ulcerative colitis in po dosed BALB/c mouse assessed as decrease in disease activity index administered twice daily for 6 days relative to control; type: functional, organism-based
Mus musculus [11] = test: Inhibition of dextran sodium sulfate-induced ulcerative colitis in po dosed BALB/c mouse assessed as decrease in colon shortening administered twice daily for 6 days relative to control; type: functional, organism-based
Mus musculus [12] = test: Inhibition of dextran sodium sulfate-induced ulcerative colitis in po dosed BALB/c mouse assessed as decrease in body weight loss administered twice daily for 6 days relative to control; type: functional, organism-based
Mus musculus [13] = test: Toxicity in dextran sodium sulfate treated po dosed BALB/c mouse ulcerative colitis model assessed as reduction in thymus weight to body weight ratio administered twice daily for 6 days relative to control; type: organism-based; conditions: in vivo, 144 h
[14] = Stability assessed as half life at pH 4 by HPLC; type: physicochemical; conditions: buffer
[15] = Stability assessed as half life at pH 2.6 by HPLC; type: physicochemical; conditions: buffer
[16] = Stability assessed as half life at pH 8 by HPLC; type: physicochemical; conditions: buffer
[17] = Stability assessed as half life at pH 7.4 by HPLC; type: physicochemical; conditions: buffer

With `C[C@]12C=CC(=O)C=C1CC[C@@H]1[C@@H]2[C@@H](O)C[C@@]2(C)[C@H]1CC[C@]2(O)C(=O)COC(=O)CCc1ccccc1/N=N/c1ccc(O)c(C(=O)O)c1` the Activity (Mus musculus [1]) was “Non-toxic”, the Activity (Mus musculus [2]) was “Active” and the Stability [3] was “Unstable”. The Stability [4] was “Stable”, the Papp B→A [5] was 14 ×10⁻⁶ cm/s and the Activity (Mus musculus [6]) was “Active”. For the same compound, the Stability [7] was “Stable” and the Activity (Mus musculus [8]) was “Active”.
For `COC(=O)CCc1ccccc1N`, the half-life [9] was 57 min.
With `C[C@]12C=CC(=O)C=C1CC[C@@H]1[C@@H]2[C@@H](O)C[C@@]2(C)[C@H]1CC[C@]2(O)C(=O)COC(=O)Cc1ccccc1/N=N/c1ccc(O)c(C(=O)O)c1` the Activity (Mus musculus [1]) was “Non-toxic”, the Activity (Mus musculus [2]) was “inactive” and the Activity (Mus musculus [6]) was “inactive”. For the same compound, the Activity (Mus musculus [8]) was “inactive”.
For `C[C@]12C=CC(=O)C=C1CC[C@@H]1[C@@H]2[C@@H](O)C[C@@]2(C)[C@H]1CC[C@]2(O)C(=O)CO` [PREDNISOLONE], the Activity (Mus musculus [10]) was “Active”, the Activity (Mus musculus [11]) was “Active” and the Activity (Mus musculus [12]) was “Active”. The Activity (Mus musculus [13]) was “Toxic”.
For `C[C@]12CCC(=O)C=C1CC[C@@H]1[C@@H]2[C@@H](O)C[C@@]2(C)[C@H]1CC[C@]2(O)C(=O)COC(=O)CCc1ccccc1N`, the half-life [14] was 30 min, the half-life [15] was 54 min and the half-life [16] was 44 min. For the same compound, the half-life [17] was 73 min.
